Laboratory results taken from PMC6983058, “Biologically Active Echinulin-Related Indolediketopiperazines from the Marine Sediment-Derived Fungus Aspergillus niveoglaucus” (Molecules, 2019).
“Also recorded” adds a separate entry of the source. Where two headings read alike, the source gives them in different places.

How the values were obtained:
[1] = cell-free, cited from earlier work; for IC50: read-out: DPPH Scavenger Activity IC50
[2] = test system: Neuro-2a cells; test: Rotenone-induced cell model of Parkinson's disease (viability, MTT); settings: 10 µM compound 1 h pretreatment, rotenone 10 µM, 24 h
Description: (§3) Neuroblastoma Neuro-2a line cells (1 × 10^4 cells/well) were treated with the test compounds at concentrations of 10 µM for 1 h, and then the neurotoxins at different concentrations were added to the neuroblastoma cell suspensions [40]. Rotenone (Sigma-Aldrich, USA) was used at 10 µM. Paraquat (Sigma-Aldrich, USA) was used at 500 µM. […] Cells incubated without neurotoxins and the test compounds and cells incubated with neurotoxins only were used as positive and negative controls, respectively. After 24 h of incubation, the cell viabilities were measured using the MTT method.

[3] = MTT cytotoxicity assay, Neuro-2a cells; settings: mouse
Description: (§4) Neuro-2a cells were cultured in DMEM medium containing 10% fetal bovine serum (Biolot, St. Petersburg, Russia) and 1% penicillin/streptomycin (Invitrogen, Carlsbad, CA, USA). Cells were incubated at 37 °C in a humidified atmosphere containing 5% (v/v) CO2 [43].
(§5) The in vitro cytotoxicities of the individual substances were evaluated using an MTT (3-(4,5-dimethylthiazol-2-yl)-2,5-diphenyltetrazolium bromide) assay, which was performed according to the manufacturer’s instructions (Sigma-Aldrich, St. Louis, MO, USA). […] Docetaxel was used as a reference substance.

[4] = test system: Neuro-2a cells; test: Paraquat-induced cell model of Parkinson's disease (viability, MTT); settings: 10 µM compound 1 h pretreatment, paraquat 500 µM, 24 h
Description: as §3

[5] = test system: Neuro-2a cells; test: ROS level in paraquat-treated Neuro-2a cells (H2DCF-DA); type: cell-based, murine; settings: 10 µM compound 1 h, then paraquat 500 µM 1 h; neurotoxin alone 148.4 ± 6.9
Description: Cell suspensions (1×10^4 cells/well) were incubated with solutions of the test compound (10 µM) for 1 h. Then, 6-hydroxydopamine solution (Sigma-Aldrich, 50 µM) or paraquat solution (Sigma-Aldrich, 500 µM) were added to each well. After 30 min (for 6-hydroxydopamine) or 1 h (for paraquat), 20 μL of 2,7-dichlorodihydrofluorescein diacetate (H2DCF-DA) solution (Molecular Probes, final concentration […]) was added to each well, and the microplate was incubated for an additional 10 min at 37 °C. The intensity of dichlorofluorescin fluorescence was measured at λex = 485 nm and λem = 518 nm. The results are presented as % relative to the control.

[6] = test system: RAW264.7 cells; settings: murine macrophage RAW264.7; potency similar to that in Neuro-2a; cited from earlier work
[7] = test system: Neuro-2a cells; test: 6-OHDA-induced cell model of Parkinson's disease (viability, MTT); type: cell-based, murine; settings: 10 µM compound 1 h pretreatment, 6-OHDA 50 µM, 24 h
[8] = in vitro; settings: mouse
Description: as §4, §5

[9] = DPPH-radical scavenger assay (cell-free); type: biochemical; settings: MeOH, 30 min
Description: The DPPH radical scavenging activities of the compounds were tested as described.
The compounds were dissolved in MeOH, and the solutions (120 µL) were dispensed into wells of a 96-well microplate. In all, 30 µL of the DPPH (Sigma-Aldrich, Steinheim, Germany) solution in MeOH (7.5 × 10^−3 M) was added to each well. The concentrations of the test compounds in the mixtures were 10 and 100 µM. The mixtures were shaken and left to stand for 30 min, and the absorbance of the resulting solutions was measured at 520 nm with a microplate reader MultiscanFC (ThermoScientific, Waltham, MA, USA). The radical scavenging activities of the compounds at 100 µM are presented as % relative to the control (MeOH alone), and the concentration scavenging 50% of the DPPH radical (EC50) was calculated for each compound.

[10] = MTT cytotoxicity assay, PC-3 cells; type: cell-based; settings: human
Description: (§1) 22Rv1, PC-3, and LNCaP cell lines were cultured according to the manufacturer’s instructions in 10% FBS/RPMI media (Invitrogen, Carlsbad, CA, USA). Cells were continuously kept in culture for a maximum of 3 months and were routinely inspected microscopically for stable phenotypes and regularly checked for contamination with mycoplasma. Cell line authentication was performed by DSMZ (Braunschweig, Germany) using highly polymorphic short tandem repeat loci.
(§2) Docetaxel was used as a reference substance.

[11] = MTT cytotoxicity assay, 22Rv1 cells; type: cell-based; settings: human
Description: as §1, §2

[12] = MTT cytotoxicity assay, LNCaP cells; type: cell-based; settings: human
Description: as §1, §2

[13] = target: T1, urease from Canavalia ensiformis (Canavalia ensiformis, UniProt P07374); test: Cell-free urease inhibition assay (indophenol method); type: biochemical
T1 construct: purchased Sigma
T1 sequence (P07374 whole entry, looked up): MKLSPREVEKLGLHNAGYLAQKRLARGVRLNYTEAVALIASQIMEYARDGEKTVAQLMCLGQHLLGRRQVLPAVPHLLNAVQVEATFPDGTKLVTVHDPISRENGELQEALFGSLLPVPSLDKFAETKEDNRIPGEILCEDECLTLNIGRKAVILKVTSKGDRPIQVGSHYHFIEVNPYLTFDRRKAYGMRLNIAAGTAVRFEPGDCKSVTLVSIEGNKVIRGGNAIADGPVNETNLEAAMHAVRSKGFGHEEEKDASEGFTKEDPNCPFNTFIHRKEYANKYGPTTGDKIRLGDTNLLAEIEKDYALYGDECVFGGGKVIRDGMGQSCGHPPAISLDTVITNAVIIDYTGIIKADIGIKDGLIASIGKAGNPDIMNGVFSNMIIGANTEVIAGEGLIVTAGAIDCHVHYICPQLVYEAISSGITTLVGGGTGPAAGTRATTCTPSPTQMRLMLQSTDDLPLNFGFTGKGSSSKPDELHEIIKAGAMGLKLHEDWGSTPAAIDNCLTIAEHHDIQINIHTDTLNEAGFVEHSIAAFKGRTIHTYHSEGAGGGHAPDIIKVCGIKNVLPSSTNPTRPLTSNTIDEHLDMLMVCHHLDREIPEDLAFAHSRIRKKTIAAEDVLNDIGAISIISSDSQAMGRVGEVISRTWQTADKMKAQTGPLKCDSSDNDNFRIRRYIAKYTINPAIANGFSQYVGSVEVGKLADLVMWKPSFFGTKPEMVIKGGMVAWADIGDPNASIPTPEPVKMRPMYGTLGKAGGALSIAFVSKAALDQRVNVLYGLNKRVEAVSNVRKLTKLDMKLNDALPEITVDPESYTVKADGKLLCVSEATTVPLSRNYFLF

[14] = test system: Staphylococcus aureus; set-up: method as in Du et al. (supplement ref 5); settings: ref Du et al. (supplement ref 5); cited from earlier work

| SMILES | IC50 [1] [µM] | increase in viability of rotenone-treated cells [2] | IC50 [3] [µM] | increase in viability of PQ-treated cells [4] | ROS Level, % of Control, Paraquat (PQ) [5] | increase in viability of 6-OHDA-treated cells [7] | IC50 [9] [µM] | IC50 [12] [µM] | further results |
| --- | --- | --- | --- | --- | --- | --- | --- | --- | --- |
| C=CC(C)(C)c1[nH]c2ccccc2c1/C=c1\[nH]c(=O)c(=C)[nH]c1=O [Compound 4, neoechinulin B] | 34 | cytoprotective activity; also recorded: significant increases | 50.9 | inactive | 101.8 ± 7.6 % of Control |  |  |  | cytotoxicity against RAW264.7 cells [6]: cytotoxic |
| C=CC(C)(C)c1[nH]c2ccccc2c1C=C1NC(=O)C2(CC(C)C=CC2C=Cc2c(O)cc(CC=C(C)C)c(O)c2C=O)NC1=O (centres unmarked) [Compound 2, cryptoechinuline D] | 23.6 | did not show any cytoprotective effects | > 100 | did not show any cytoprotective effects |  | did not show any cytoprotective effects |  |  | DPPH Scavenger Activity IC50 [1]: strong |
| C=CC(C)(C)c1[nH]c2ccccc2c1/C=C1\NC(=O)C(=O)NC1=O [Compound 6, neoechinulin E] | 46 | significant increases |  |  | 94.1 ± 2.9 % of Control |  |  |  | IC50 [8]: > 100 µM |
| C=CC(C)(C)c1[nH]c2cc(CC=C(C)C)ccc2c1/C=C1\NC(=O)[C@@]2(C[C@@H](C)C=C[C@H]2/C=C/c2c(O)cc(CC=C(C)C)c(O)c2C=O)NC1=O [Compound 1b, (−)-Cryptoechinuline B] |  | inactive | > 100 | protected |  | inactive | 118 ± 4.7 |  | DPPH Scavenger Activity IC50 [9]: weak |
| C=CC(C)(C)c1[nH]c2cc(CC=C(C)C)ccc2c1/C=C1\NC(=O)C(=O)NC1=O [Compound 7, neoechinulin] |  | not active | > 100 | inactive |  |  | 62.6 ± 1.1 | 38.9 | IC50 [10]: 63.8 µM; IC50 [11]: 49.9 µM |
| NC(N)=S [Thiourea, reference compound] |  |  |  |  |  |  |  |  | IC50 ([13]; cell-free, 0.2-100.0 µM tested, pH 7.3-7.5, read-out: urease inhibition IC50): 23 µM |
| CC(=O)O[C@@]12CO[C@@H]1C[C@H](O)[C@@]1(C)C(=O)[C@H](O)C3=C(C)[C@@H](OC(=O)[C@H](O)[C@@H](NC(=O)OC(C)(C)C)c4ccccc4)C[C@@](O)([C@@H](OC(=O)c4ccccc4)[C@H]21)C3(C)C [Docetaxel, reference compound] |  |  |  |  |  |  |  | 0.004 |  |
| C=CC(C)(C)c1[nH]c2cc(CC=C(C)C)ccc2c1/C=c1\[nH]c(=O)c(=C)[nH]c1=O [Compound 5, neoechinulin C] | 31.1 | not active | 40.6 | protected | 97.4 ± 2.8 % of Control |  |  |  |  |
| C=CC(C)(C)c1[nH]c2cc(CC=C(C)C)ccc2c1/C=C1\NC(=O)[C@]2(C[C@H](C)C=C[C@@H]2/C=C/c2c(O)cc(CC=C(C)C)c(O)c2C=O)NC1=O [Compound 1a, (+)-Cryptoechinuline B] |  | neuroprotective activity; also recorded: significant increases | > 100 | neuroprotective activity |  | neuroprotective activity | 122 ± 7.1 |  | DPPH Scavenger Activity IC50 [9]: weak; viability at 10 µM ([7]; Mus musculus, N2a, read-out: increase in viability of 6-OHDA-treated cells): 40.7% |
| C=CC(C)(C)c1[nH]c2c(CC=C(C)C)cc(CC=C(C)C)cc2c1C[C@@H]1NC(=O)[C@H](C)NC1=O [Compound 3, echinulin] | 29.9 | inactive | > 100 | inactive | 90.3 ± 2.2 % of Control |  |  | 25.9 | IC50 [10]: 41.7 µM; antibacterial activity against Staphylococcus aureus [14]: antibacterial activity; IC50 [13]: 29.8 µM; IC50 [11]: 63.2 µM |
